In publication PMC6385203, “Mutations in the palm domain disrupt modulation of acid-sensing ion channel 1a currents by neuropeptides” (Scientific Reports, 2019):
Entries after “also recorded” stand apart in the source; their conditions may differ. Ends that are not written are not given here.

What was measured:
ASIC1a E242C = assay: Modification of Cys mutant by MTSET; assay type: cell-based, human; conditions: 1 mM MTSET 3 min, pH dependence of activation and SSD, n=4-6
Description: (§1) Figure S2. Modification of Cys mutants by MTSET. To determine whether exposure to MTSET modified specific Cys mutants, we applied pH protocols that detect shifts in the pH dependence of activation and of steady-state desen sitization (SSD) to ASIC1a-e xpressing oocytes, before and after a 3-min exposure to 1mM MTSET. a, illustration of the experimental protocol at the example of the E97C mutant. The acidic solution was applied once every minute, except during the incubation with MTSET. b, ratio of current amplitudes obtained at pH6.5 and pH5 from the conditioning pH7.4, as a measure of the pH dependence of activation, before (open bars) and after MTSET expo sure (red bars). c, ratio of the current amplitude at pH5 from the conditioning pH7.15 / the current amplitude at pH5 obtained from the conditioning pH7.4, as an indication of the pH dependence of SSD, n=4-6. *, p<0.05; **, p<0.01; ***, p<0.001; ****, p<0.0001; different between control and MTSET condition, […]
(§2) WT ASIC1a3,4. If a functional property is changed after MTSET incubation and its washout, it is concluded that the engineered Cys residue has been modified by MTSET. This analysis […]
(§3) (1 picture or pasted object on this page, not shown here)

ASIC1a E97C = assay: Modification of Cys mutant by MTSET; assay type: cell-based, human; conditions: 1 mM MTSET 3 min, pH dependence of activation and SSD, n=4-6
Description: as §1, §2, §3

ASIC1a F302C = assay: Modification of Cys mutant by MTSET; assay type: cell-based, human; conditions: 1 mM MTSET 3 min, pH dependence of activation and SSD, n=4-6
Description: as §1, §2, §3

ASIC1a S240C = assay: Modification of Cys mutant by MTSET; assay type: cell-based, human; conditions: 1 mM MTSET 3 min, pH dependence of activation and SSD, n=4-6
Description: as §1, §2, §3

ASIC1a L280C = conditions: L280C mutant; cited from earlier work
Text: (§4) Based on in silico docking, mutagenesis and functional validation, our study points to the side cavities of the central vestibule as the most probable binding sites for the peptide FRRFa. […] The 40-amino acid peptide toxin PcTx1 binds into the acidic pocket and to the subunit interface ...

[1] = system: ENaC/degenerin ion channel family; conditions: cited from earlier work
Text: (§5) FaNaC-like channels have been described in mollusks and Hydra[8]–[10], but not in mammals. Mammals express FMRFa-related peptides that exert their pharmacological actions mainly by binding to G protein-coupled receptors. Mammalian FMRFa-like peptides contain more than four residues. Since they ...

[2] = system: ASIC1- and ASIC3-containing channels; conditions: FMRFa and related peptides; cited from earlier work
Text: as §5

FaNaC = conditions: molluscan FaNaC; cited from earlier work
Text: as §5

ASIC1a [3] = conditions: cited from earlier work
Description: Currently it is not known where in the ASICs the RFa peptides bind. […] Our docking studies predicted possible b ... || ASIC1a function was measured by two-electrode voltage-clamp after recombinant expression in Xenopus oocytes. The channels were activated by a pH5 stimulation solution from a conditioning solution of pH7.4. […] We measured the rate of FRRFa unbinding, as the disappearance of the sustained current after a 50-s incubation with 50 μM FRRFa, as 0.025 ± 0.005 s^−1 (n = 8, Fig. 2b).

ASIC1a [4] = conditions: cited from earlier work; for competition between functional effects: PcTx1 vs big dynorphin
Text: as §4

Molecule: C[N+](C)(C)CCSS(C)(=O)=O [MTSET, [2-(trimethylamonium)ethyl] methanethiosulfonate]
- modification by MTSET (ASIC1a E242C): evidence for modification by MTSET; also recorded: exposure to MTSET changes the properties of the mutants E97C, S240C and E242C
- modification by MTSET (ASIC1a E97C): evidence for modification by MTSET; also recorded: exposure to MTSET changes the properties of the mutants E97C, S240C and E242C
- modification by MTSET (ASIC1a F302C): evidence for modification by MTSET
- modification by MTSET (ASIC1a S240C): evidence for modification by MTSET; also recorded: exposure to MTSET changes the properties of the mutants E97C, S240C and E242C
- effect of MTSET modification on sustained current fraction (ASIC1a L280C): strongly increases the sustained current fraction

Molecule: N=C(N)NC(=O)c1nc(Cl)c(N)nc1N [amiloride]
- inhibition of ENaC/degenerin channels [1]: inhibited by amiloride

Molecule: Phe-Met-Arg-Phe-amide [FMRFa]
- effects on ASIC desensitization, sustained current and SSD [2]: slow the desensitization time course of ASIC1- and ASIC3-containing channels and induce a sustained (non-desensitizing) current as well as an acidic shift in the SSD pH dependence of ASIC1a
- channel activation (FaNaC): activated by the neuropeptide Phe-Met-Arg-Phe-amide (FMRFa)
- requirement of pre-application (ASIC1a [3]): affect ASIC1a currents only when pre-applied with the conditioning solution at pH 7.4

Molecule: PcTx1: 40-amino acid peptide toxin PcTx1 (EDCIPKWKGCVNRHGDCCEGLECWKRRRSFEVCVPKTPKT; ends and bridges not checked; cysteine pairing not given here; UniProt P60514 1-40, looked up)
- competition between functional effects (ASIC1a [4]): a competition between the functional effects of PcTx1 and the peptide big dynorphin

Molecule: big dynorphin: a remotely related Arg-rich 32-amino acid peptide
- competition between functional effects (ASIC1a [4]): a competition between the functional effects of PcTx1 and the peptide big dynorphin
- modulation of ASIC1a (ASIC1a [4]): modulates ASIC1a in a similar way as RFa peptides do
